{"source": "patent US20060183780A1", "about": "“Pyrazole compounds useful in the treatment of inflammation” (priority 2003, published 2006)", "data": [{"biological_target": "T1, 15-lipoxygenase (Homo sapiens, UniProt P16050)", "T1 sequence (P16050 1-662)": "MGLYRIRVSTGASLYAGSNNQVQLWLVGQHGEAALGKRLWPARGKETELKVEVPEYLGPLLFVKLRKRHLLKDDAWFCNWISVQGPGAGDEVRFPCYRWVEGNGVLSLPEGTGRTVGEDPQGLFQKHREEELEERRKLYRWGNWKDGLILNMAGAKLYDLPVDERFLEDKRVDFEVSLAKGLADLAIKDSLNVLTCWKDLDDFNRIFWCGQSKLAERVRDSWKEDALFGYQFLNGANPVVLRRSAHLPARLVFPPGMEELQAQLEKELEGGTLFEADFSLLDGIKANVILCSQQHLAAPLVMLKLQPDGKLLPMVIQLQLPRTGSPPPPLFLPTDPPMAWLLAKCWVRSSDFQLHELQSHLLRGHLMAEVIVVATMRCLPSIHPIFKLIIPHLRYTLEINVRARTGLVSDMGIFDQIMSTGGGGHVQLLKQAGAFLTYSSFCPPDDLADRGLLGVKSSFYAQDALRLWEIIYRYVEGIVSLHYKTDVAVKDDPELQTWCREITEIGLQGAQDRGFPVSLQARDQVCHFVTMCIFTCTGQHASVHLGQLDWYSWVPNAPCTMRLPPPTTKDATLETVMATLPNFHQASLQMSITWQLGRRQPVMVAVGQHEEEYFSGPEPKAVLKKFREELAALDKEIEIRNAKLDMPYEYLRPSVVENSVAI", "assay": "15-lipoxygenase inhibition, DPPP fluorescence assay with linoleic acid", "assay_type": "biochemical", "settings": "biological test method; test concentration not given", "protocol": "The assay employed takes advantage of the ability of lipid hydroperoxides to oxidize the non-fluorescent diphenyl-1-pyrenylphosphine (DPPP) to its corresponding fluorescent phosphine oxide. Fluorescence is measured using a dual-scanning microplate spectrofluorometer, Spectramax Gemini, from Molecular Devices. DPPP was purchased from Molecular Probes. Linoleic acid was from Biomol and PBS (phosphate buffered saline) from Gibco Life Technologies. The assay is performed in 96-well plates at room temperature (20-22° C.). The following are added (in the following order) to each well:\na) 35 μl of Dulbecco's phosphate buffered saline (PBS);\nb) inhibitor (i.e. compound) or vehicle (0.5 μl DMSO);\nc) 10 μL of a 5× concentrated 15-lipoxygenase solution in PBS. The plates are incubated for 5 minutes at room temperature;\nd) 5 μl of 2 mM linoleic acid in PBS. The plate is then incubated for 20 minutes at room temperature;\ne) the enzymatic reaction is terminated by the addition of 50 μl methanol; and\nf) 50 μl of 200 μM DPPP in methanol is added to each well.\nAfter 30 minutes at room temperature, the fluorescence can be read using an excitation wavelength of 358 nm and an emission wavelength of 379 nm.", "units": {"inhibition of 15-lipoxygenase": "%"}, "values": [{"smiles": "O=C(Nc1cccnc1)c1ccn(C(=O)c2ccccc2)n1", "note": "[Example 1, 1-Benzoyl-1H-pyrazole-3-carboxylic acid pyridin-3-ylamide]", "inhibition of 15-lipoxygenase": 45}, {"smiles": "COC(=O)c1ccsc1NC(=O)c1ccn(C(=O)c2cc(F)ccc2C)n1", "note": "[Example 8, 2-{[1-(5-Fluoro-2-methylbenzoyl)-1H-pyrazole-3-carbonyl]amino}-thiophene-3-carboxylic acid methyl ester]", "inhibition of 15-lipoxygenase": 50}, {"smiles": "CCOc1ccccc1C(=O)n1ccc(C(=O)Nc2cc(C)no2)n1", "note": "[Example 14, 1-(2-Ethoxybenzoyl)-1H-pyrazole-3-carboxylic acid (3-methylisoxazol-5-yl)amide]", "inhibition of 15-lipoxygenase": 39}, {"smiles": "CCCCCc1ccc(C(=O)n2ccc(C(=O)Nc3ccc(N(C)C)cc3)n2)cc1", "note": "[Example 23, 1-(4-Pentylbenzoyl)-1H-pyrazole-3-carboxylic acid (4-dimethylaminophenyl)amide]", "inhibition of 15-lipoxygenase": 44}, {"smiles": "CCOc1ccccc1C(=O)n1ccc(C(=O)Nc2cc(Cl)ccc2C#N)n1", "note": "[Example 26, 1-(2-Ethoxybenzoyl)-1H-pyrazole-3-carboxylic acid (5-chloro-2-cyanophenyl)amide]", "inhibition of 15-lipoxygenase": 45}]}]}
